Laboratory results reported in ChEMBL document CHEMBL1147698, “Design of a potent, soluble glucokinase activator with excellent in vivo efficacy” (Bioorg Med Chem Lett, 2006).
≈ marks a conversion by molar mass, not a printed value.

Assays:
[1] = Clearance in rat; type: ADME, organism-based; settings: in vivo
[2] = Intrinsic clearance in rat per 10^6 cells; type: ADME
[3] = Percent of unbound ligand in rat plasma; type: ADME, organism-based
Rattus norvegicus [4] = species: Rattus norvegicus; assay: Unbound clearance in rat; type: ADME, organism-based; settings: in vivo
[5] = Clearance in dog; type: ADME, organism-based, Canis lupus familiaris; settings: in vivo
[6] = Intrinsic clearance in dog per 10^6 cells; type: ADME, Canis lupus familiaris; settings: not recorded
Canis familiaris [7] = species: Canis familiaris; assay: Unbound clearance in dog; type: ADME, organism-based, Canis lupus familiaris; settings: in vivo
[8] = Solubility of the compound; type: physicochemical
[9] = Bioavailability in rat; type: ADME, organism-based; settings: in vivo
[10] = Bioavailability in dog; type: ADME, organism-based, Canis lupus familiaris; settings: in vivo
Rattus norvegicus [11] = species: Rattus norvegicus; assay: Decrease in glucose level in Zucker rat by oral glucose tolerance test; type: ADME, organism-based; settings: in vivo
Rattus norvegicus [12] = assay: Decrease in glucose level in Zucker rat at 3 mg/kg, po by oral glucose tolerance test; type: ADME, organism-based; set-up: dose 3 mg/kg, route oral; settings: in vivo
Hexokinase-4 = target: T1, Hexokinase-4 (Homo sapiens, UniProt P35557)
T1 sequence (P35557 whole entry): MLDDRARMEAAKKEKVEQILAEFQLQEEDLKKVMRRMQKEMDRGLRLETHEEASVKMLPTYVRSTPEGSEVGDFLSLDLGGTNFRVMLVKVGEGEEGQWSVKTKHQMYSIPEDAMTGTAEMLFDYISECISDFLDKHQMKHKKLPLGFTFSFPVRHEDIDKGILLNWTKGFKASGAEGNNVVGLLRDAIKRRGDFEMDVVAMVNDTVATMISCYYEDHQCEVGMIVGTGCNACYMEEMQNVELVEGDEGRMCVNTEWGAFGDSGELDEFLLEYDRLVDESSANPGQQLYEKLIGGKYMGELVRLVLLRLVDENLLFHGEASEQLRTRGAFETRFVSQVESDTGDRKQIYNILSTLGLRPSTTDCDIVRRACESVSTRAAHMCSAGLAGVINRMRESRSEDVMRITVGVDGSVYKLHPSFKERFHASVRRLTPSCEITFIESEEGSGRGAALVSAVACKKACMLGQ
Description: Activation of glucokinase

Rattus norvegicus [13] = assay: Decrease in glucose level in Zucker rat at 1 mg/kg, po by oral glucose tolerance test; type: ADME, organism-based; set-up: dose 1 mg/kg, route oral; settings: in vivo
Rattus norvegicus [14] = species: Rattus norvegicus; assay: Hepatic blood flow in rat; type: ADME, organism-based, Liver
Rattus norvegicus [15] = species: Rattus norvegicus; assay: Clearance in rat measured as percent of hepatic blood flow; type: ADME, organism-based, Liver; settings: in vivo
Canis familiaris [16] = species: Canis familiaris; assay: Hepatic blood flow in dog; type: ADME, organism-based, Canis lupus familiaris, Liver
Canis familiaris [17] = species: Canis familiaris; assay: Clearance in dog measured as percent of hepatic blood flow; type: ADME, organism-based, Canis lupus familiaris, Liver; settings: in vivo
[18] = Percent of unbound ligand in dog plasma; type: ADME, organism-based, Canis lupus familiaris

| SMILES | hepatocyte CLint [2] [µL/min/1e6 cells] | fraction unbound [3] | CL/F (Rattus norvegicus [4]) [mL/min/kg] | solubility [8] [µM] | bioavailability [9] [%] | EC50 (Hexokinase-4) [µM] | other results |
| --- | --- | --- | --- | --- | --- | --- | --- |
| CC(C)Oc1cc(OCc2ccccc2)cc(C(=O)Nc2ccc(C(=O)O)cn2)c1 | < 1 | 0.002 | 1850 | – | – | – | clearance [1]: 3.7 mL/min/kg |
| COC[C@H](C)Oc1cc(O[C@@H](C)Cc2ccccc2)cc(C(=O)Nc2ccc(C(=O)O)cn2)c1 | – | – | 475 | 1350 (≈ 627 µg/mL) | 99 | – | clearance [5]: 4.4 mL/min/kg; hepatocyte CLint [6]: < 1 µL/min/1e6 cells; CL/F (Canis familiaris [7]): 301 mL/min/kg; bioavailability [10]: 100%; Activity (Rattus norvegicus [11]): Dose-dependent effect |
| CC(C)Oc1cc(O[C@@H](C)Cc2ccccc2)cc(C(=O)Nc2ccc(C(=O)O)cn2)c1 | – | – | 1435 | 8 (≈ 3.48 µg/mL) | 85 | 0.02 | Activity (Rattus norvegicus [12]): Active |
| COC[C@@H](C)Oc1cc(OC(C)C)cc(C(=O)Nc2ccc(C(=O)O)cn2)c1 | – | 0.0622 | – | – | – | 5.51 | – |
| CC(C)Oc1cc(O[C@H](C)c2ccccc2)cc(C(=O)Nc2ccc(C(=O)O)cn2)c1 | – | 0.0048 | – | – | – | 0.95 | – |
| COC[C@H](C)Oc1cc(OC(C)C)cc(C(=O)Nc2ccc(C(=O)O)cn2)c1 | – | 0.0534 | 43 | > 3140 | 100 | 0.61 | clearance [1]: 2.3 mL/min/kg; Activity (Rattus norvegicus [13]): Active |
| CC(C)Oc1cc(OCCc2ccsc2)cc(C(=O)Nc2ccc(C(=O)O)cn2)c1 | < 1 | 0.0026 | 1461 | – | – | – | Activity (Rattus norvegicus [14]): 72 mL/min/kg; %LBF (Rattus norvegicus [15]): 5.3%; clearance [5]: 8.7 mL/min/kg; Activity (Canis familiaris [16]): 31 mL/min/kg; %LBF (Canis familiaris [17]): 28%; hepatocyte CLint [6]: < 1 µL/min/1e6 cells; fraction unbound [18]: 0.0064; CL/F (Canis familiaris [7]): 1359 mL/min/kg |
| CC(C)Oc1cc(O[C@@H](C)c2ccccc2)cc(C(=O)Nc2ccc(C(=O)O)cn2)c1 | < 1 | – | 171 | – | – | 0.11 | – |
| CC(C)Oc1cc(O[C@H](C)Cc2ccccc2)cc(C(=O)Nc2ccc(C(=O)O)cn2)c1 | – | 0.0023 | – | – | – | 0.09 | – |
